Assay results: US20230081986A1, “METHOD AND REAGENTS TO IMPROVE NONANIMAL OCULAR TOXICITY TESTS” (Lebrun Labs LLC, priority 2021, published 2023)

test system: food-source rabbit eyes (cornea); conditions: 100 µL, 1 minute exposure, tear solution wash, 24 hours organ culture
Experimental: (§1) Because of these modifications, we have updated our prediction model to include the metabolic test to identify reversible irritants or toxicity as shown in FIG. 3. For GHS (A) and EPA (B) classification systems, if the direct procedure (100 µL, washed after 1 minute exposure with 20 mL tear solution using a blunt end syringe 2-5 cm from cornea to create a laminar flow across the tissue) is negative, the metabolic result is used to confirm the negative result or identify reversible irritants or toxicity (GHS 2 or EPA II) if increased DoI is detected. […] For the GHS classification system, the NC is defined by no stromal DoI and a negative metabolic test.
Only food source eyes are suitable for this procedure.
3) Put the lid onto the 12 well plate(s) and place into the incubator (37° C., 5% CO2) for one hour.
3) Place an eye on the holder and carefully place a new cloning ring in the middle of the cornea without scratching it.
9) Start the timer for one minute.
10) After the one minute is over, remove the dosing ring and put in the proper container, and pick up the tissue without touching the cornea and hold it over the container for liquid waste.

Row | Compound | Direct (depth of injury, stromal)
1 | COCC(O)CO (stereo not shown) [3-Methoxy-1,2-propanediol] | 0.0%
2 | OC1CCCCC1 [Cyclohexanol] | 29.6%
3 | CC(C)=O [Acetone] | 0.0%
4 | C=CC(=O)OCCO [Hydroxyethyl acrylate] | 100.0%
5 | CCC(C)c1ccccc1 (stereo not shown) [sec-Butylbenzene] | 0.0%
6 | O=S(=O)(Cl)c1ccccc1 [Benzenesulphonylchloride] | 52.8%
7 | CCCCCC(C)=O [Methyl amyl ketone] | 6.0%
8 | C=CC(=O)OCCCCCC(C)C [iso-Octyl acrylate] | 0.0%
9 | CCCCCC [Hexane] | 0.0%
10 | OCCCCC(O)CO (stereo not shown) [1,2,6-Hexanetriol] | 0.0%
11 | BrCCCCCCBr [1,6-Dibromohexane] | 0.0%
12 | Diethylaminopropionitrile | 56.8%
13 | CCCCCCCCBr [n-Octyl bromide] | 0.0%
14 | C[Si](C)(C)O[Si](C)(C)C [Hexamethyldisiloxane] | 0.0%
15 | CC(C)CCCCCOC(=O)CS [iso-Octylthioglycolate] | 0.0%
16 | OC1CCCC1 [Cyclopentanol] | 30.4%
17 | CCCOCC(C)O (stereo not shown) [Propasol solvent P] | 18.3%
18 | O=C(Cl)c1c(Cl)cccc1Cl [2,6-Dichlorobenzoyl chloride] | 0.0%
19 | N#CCCCl [3-Chloropropionitrile] | 12.0%
20 | Cc1ccccc1 [Toluene] | 50.1%

same assay, conditions: rabbit, 1 min

Row | Compound | Direct (depth of injury, stromal)
21 | CC(C)CC(=O)CC(C)C [Di-iso-butyl ketone] | 0.0%
22 | OCC(O)CO [Glycerol] | 0.0%
23 | CC(O)CC(C)O (stereo not shown) [2,4-Pentanediol] | 0.0%
24 | CCOC(=O)C(C)(C)O [2-Hydroxy isobutyric acid ethyl ester] | 42.3%
25 | CCC(C)(C)C(=O)O [2,2-Dimethyl butanoic acid] | 27.4%
26 | CCCCCCCCOCCCCCCCC [Dioctyl ether] | 0.0%
27 | CC(O)C(=O)O (stereo not shown) [Lactic acid] | 100.0%
28 | CC(O)CO (stereo not shown) [Propylene glycol] | 0.0%
29 | CCCC(C)CO (stereo not shown) [2-Methyl-1-pentanol] | 5.7%
30 | COC(C)=O [Methyl acetate] | 24.0%
31 | CC(=O)CC(=O)OC(C)C [Isopropyl acetoacetate] | 0.0%

test system: food-source rabbit eyes (cornea); conditions: EPA prediction model from direct and metabolic results
Excerpt: FIG. 3 depicts the EPA and GHS prediction models. […] Meta. = Metabolic; GHS = Globally Harmonized System of Classification and Labeling of chemicals; EPA = Environmental Protection Agency; NC = Not Classified; * = Apical death of epithelium of at least 10%; must be a clear line of nuclei.
as §1

Row | Compound | Prediction EPA
32 | OC1CCCCC1 [Cyclohexanol] | I (category I includes damage greater than 25%)
33 | CC(C)=O [Acetone] | II (category II includes damage greater than 15% but less than 25% (or is positive for cell death by the metabolic test))
34 | O=S(=O)(Cl)c1ccccc1 [Benzenesulphonylchloride] | I (category I includes damage greater than 25%)
35 | CCCCCC(C)=O [Methyl amyl ketone] | III (category III includes damage to the epithelium of the stroma up to 15%)
36 | Diethylaminopropionitrile | II (category II includes damage greater than 15% but less than 25% (or is positive for cell death by the metabolic test))
37 | CC(O)C(=O)O (stereo not shown) [Lactic acid] | I (category I includes damage greater than 25%)
38 | OC1CCCC1 [Cyclopentanol] | I (category I includes damage greater than 25%)
39 | CCCC(C)CO (stereo not shown) [2-Methyl-1-pentanol] | III (category III includes damage to the epithelium of the stroma up to 15%)
40 | CCCOCC(C)O (stereo not shown) [Propasol solvent P] | II (category II includes damage greater than 15% but less than 25% (or is positive for cell death by the metabolic test))
41 | O=C(Cl)c1c(Cl)cccc1Cl [2,6-Dichlorobenzoyl chloride] | II (category II includes damage greater than 15% but less than 25% (or is positive for cell death by the metabolic test))
42 | N#CCCCl [3-Chloropropionitrile] | III (category III includes damage to the epithelium of the stroma up to 15%)

same assay, conditions: GHS prediction model from direct and metabolic results

Row | Compound | Prediction GHS
43 | OC1CCCCC1 [Cyclohexanol] | 1 (GHS category 1 is defined as stromal damage of 18% or greater)
44 | CC(C)=O [Acetone] | 2 (Category 2 is identified by any stromal DoI up to 18% or a positive metabolic test)
45 | C=CC(=O)OCCO [Hydroxyethyl acrylate] | 1 (GHS category 1 is defined as stromal damage of 18% or greater)
46 | O=S(=O)(Cl)c1ccccc1 [Benzenesulphonylchloride] | 1 (GHS category 1 is defined as stromal damage of 18% or greater)
47 | CCCCCC(C)=O [Methyl amyl ketone] | 2 (Category 2 is identified by any stromal DoI up to 18% or a positive metabolic test)
48 | Diethylaminopropionitrile | 1 (GHS category 1 is defined as stromal damage of 18% or greater)
49 | OC1CCCC1 [Cyclopentanol] | 1 (GHS category 1 is defined as stromal damage of 18% or greater)
50 | CCCOCC(C)O (stereo not shown) [Propasol solvent P] | 1 (GHS category 1 is defined as stromal damage of 18% or greater)
51 | O=C(Cl)c1c(Cl)cccc1Cl [2,6-Dichlorobenzoyl chloride] | 2 (Category 2 is identified by any stromal DoI up to 18% or a positive metabolic test)
52 | N#CCCCl [3-Chloropropionitrile] | 2 (Category 2 is identified by any stromal DoI up to 18% or a positive metabolic test)
53 | Cc1ccccc1 [Toluene] | 1 (GHS category 1 is defined as stromal damage of 18% or greater)

test system: rabbit eye (cornea, iris, and conjunctiva); conditions: EPA classification; Lebrun et al., 2020 / NICEATM, 2006; cited from earlier work

Row | Compound | in vivo EPA
54 | OC1CCCCC1 [Cyclohexanol] | I (I (corrosive, lesions are not reversed within 21 days))
55 | CC(C)=O [Acetone] | II (II (damage is reversed within 21 days of exposure))
56 | O=S(=O)(Cl)c1ccccc1 [Benzenesulphonylchloride] | *I^2 (I (corrosive, lesions are not reversed within 21 days))
57 | CCCCCC(C)=O [Methyl amyl ketone] | III (III (damage is reversed within 7 days of exposure))
58 | CC(=O)O [Acetic Acid (10%), Acetic Acid] | I (I (corrosive, lesions are not reversed within 21 days))
59 | Diethylaminopropionitrile | II (II (damage is reversed within 21 days of exposure))
60 | CCOC(=O)C(C)(C)O [2-Hydroxy isobutyric acid ethyl ester] | *I^2 (I (corrosive, lesions are not reversed within 21 days))
61 | CCC(C)(C)C(=O)O [2,2-Dimethyl butanoic acid] | I (I (corrosive, lesions are not reversed within 21 days))
62 | CC(O)C(=O)O (stereo not shown) [Lactic acid] | I (I (corrosive, lesions are not reversed within 21 days))
63 | OC1CCCC1 [Cyclopentanol] | II (II (damage is reversed within 21 days of exposure))
64 | CCCC(C)CO (stereo not shown) [2-Methyl-1-pentanol] | III (III (damage is reversed within 7 days of exposure))
65 | COC(C)=O [Methyl acetate] | II (II (damage is reversed within 21 days of exposure))
66 | CCCOCC(C)O (stereo not shown) [Propasol solvent P] | II (II (damage is reversed within 21 days of exposure))
67 | O=C(Cl)c1c(Cl)cccc1Cl [2,6-Dichlorobenzoyl chloride] | II (II (damage is reversed within 21 days of exposure))
68 | N#CCCCl [3-Chloropropionitrile] | III (III (damage is reversed within 7 days of exposure))
69 | CC(=O)CC(=O)OC(C)C [Isopropyl acetoacetate] | III (III (damage is reversed within 7 days of exposure))

same assay, conditions: GHS classification; Lebrun et al., 2020; cited from earlier work

Row | Compound | in vivo GHS
70 | OC1CCCCC1 [Cyclohexanol] | 1 (1 (extreme and/or irreversible irritation effects that are not reversed within 21 days))
71 | CC(C)=O [Acetone] | 2A (2 A, irritation effects are reversed within 21 days)
72 | O=S(=O)(Cl)c1ccccc1 [Benzenesulphonylchloride] | 1 (1 (extreme and/or irreversible irritation effects that are not reversed within 21 days))
73 | CC(=O)O [Acetic Acid (10%), Acetic Acid] | 1 (1 (extreme and/or irreversible irritation effects that are not reversed within 21 days))
74 | Diethylaminopropionitrile | 1 (1 (extreme and/or irreversible irritation effects that are not reversed within 21 days))
75 | CCOC(=O)C(C)(C)O [2-Hydroxy isobutyric acid ethyl ester] | 1 (1 (extreme and/or irreversible irritation effects that are not reversed within 21 days))
76 | CCC(C)(C)C(=O)O [2,2-Dimethyl butanoic acid] | 1 (1 (extreme and/or irreversible irritation effects that are not reversed within 21 days))
77 | CC(O)C(=O)O (stereo not shown) [Lactic acid] | 1 (1 (extreme and/or irreversible irritation effects that are not reversed within 21 days))
78 | OC1CCCC1 [Cyclopentanol] | 2B (2 B, within 7 days)
79 | CCCC(C)CO (stereo not shown) [2-Methyl-1-pentanol] | 2B (2 B, within 7 days)
80 | COC(C)=O [Methyl acetate] | 2A (2 A, irritation effects are reversed within 21 days)
81 | CCCOCC(C)O (stereo not shown) [Propasol solvent P] | 2A (2 A, irritation effects are reversed within 21 days)
82 | O=C(Cl)c1c(Cl)cccc1Cl [2,6-Dichlorobenzoyl chloride] | 2A (2 A, irritation effects are reversed within 21 days)
83 | N#CCCCl [3-Chloropropionitrile] | 2B (2 B, within 7 days)
84 | CC(=O)CC(=O)OC(C)C [Isopropyl acetoacetate] | 2B (2 B, within 7 days)

test system: food-source rabbit eyes (cornea); conditions: not given
Experimental: All of the steps of the META test are the same as the direct test except for the dosing step. For the META, 100 µL of tear solution (saline with ascorbic acid, protein) is first added to the dosing ring, followed by the addition of 100 µL of the material to be tested.
as §1
NOTE: The steps of the main procedure are the same as described above. The only deviations are described below and apply to the dosing of the corneas and interpretation of results. • 1) After the pre-incubation, remove the 12 well plate(s) from the incubator and place in the hood. • 2) Using a skinny sharpie, label the wells on the lid (water or specific chemical). • 3) Place an eye on the holder and carefully place a new cloning ring in the middle of the cornea without scratching it. • 4) Remove the needle from the syringe by twisting it off. Fill the syringe with 40 mL of 1x PBS by aliquoting it from the beaker. • 5) Put the needle back on the syringe by twisting on and remove the cap protecting the needle. Place the syringe flat on a sterile piece of foil. • 6) Obtain the timer. Add 100 uL of the T8 tear solution in the center of the dosing ring. Ensure the entire surface is covered. • 7) Retrieve 100 uL of the sample and aspirate in the center of the dosing ring, ensuring the entire surface is exposed.

Row | Meta. (Metabolic) | Compound
85 | Neg. | CC(O)CC(C)O (stereo not shown) [2,4-Pentanediol]
86 | Neg. | CCCCCCCCOCCCCCCCC [Dioctyl ether]
87 | Neg. | CC(O)CO (stereo not shown) [Propylene glycol]
88 | Pos. | CC(=O)CC(=O)OC(C)C [Isopropyl acetoacetate]

same assay, conditions: 6 minutes, 100 µL tear solution then 100 µL test material; run only where Direct was 0%

Row | Compound | Meta. (Metabolic)
89 | COCC(O)CO (stereo not shown) [3-Methoxy-1,2-propanediol] | Neg.
90 | CC(C)=O [Acetone] | Pos.
91 | CCC(C)c1ccccc1 (stereo not shown) [sec-Butylbenzene] | Neg.
92 | CCCCCC [Hexane] | Neg.
93 | OCCCCC(O)CO (stereo not shown) [1,2,6-Hexanetriol] | Neg.
94 | BrCCCCCCBr [1,6-Dibromohexane] | Neg.
95 | C[Si](C)(C)O[Si](C)(C)C [Hexamethyldisiloxane] | Neg.
96 | CC(C)CCCCCOC(=O)CS [iso-Octylthioglycolate] | Neg.
97 | O=C(Cl)c1c(Cl)cccc1Cl [2,6-Dichlorobenzoyl chloride] | Pos.
